Experimental data as given in patent publication US11135246B2, “Peptides and combination of peptides for use in immunotherapy against leukemias and other cancers” (Immatics Biotechnologies GmbH, priority 2017, dated 2021).

Test system: CD8+ T cells
Assay: In vitro T-cell priming assay (immunogenicity): repeated stimulation of CD8+ T cells with aAPCs loaded with peptide/MHC complexes and anti-CD28, pMHC multimer readout
Assay type: cell-based, human
Conditions: Table 10a; healthy donors; three stimulation cycles; HLA-A*02 (278), HLA-A*24 (279)
Experimental: In order to obtain information regarding the immunogenicity of the TUMAPs of the present invention, the inventors performed investigations using an in vitro T-cell priming assay based on repeated stimulations of CD8+ T cells with artificial antigen presenting cells (aAPCs) loaded with peptide/MHC complexes and anti-CD28 antibody. […]
Generation of pMHC/anti-CD28 coated beads, T-cell stimulations and readout was performed in a highly defined in vitro system using four different pMHC molecules per stimulation condition and 8 different pMHC molecules per readout condition. […]
Stimulations were initiated in 96-well plates by co-incubating […] CD8+ T cells with 2×10^5 washed coated beads in 200 μl TCM supplemented with 5 ng/ml IL-12 (PromoCell) for 3 days at 37° C. […] For the pMHC multimer readout using 8 different pMHC molecules per condition, a two-dimensional combinatorial coding approach was used as previously described (Andersen et al., 2012) with minor modifications encompassing coupling to 5 different fluorochromes. […] Peptide specific cells were calculated as percentage of total CD8+ cells. […] In vitro priming of specific multimer+CD8+ lymphocytes was detected by comparing to negative control stimulations.

Substance | Wells positive [%]
278 (YLDRKLLTL; listed as Homo sapiens) [compound 278] | ++++ (>=70% = ++++)
279 (LYIDRPLPYL; listed as Homo sapiens) [compound 279] | ++++ (>=70% = ++++)
